Values of other authors as cited in patent publication US20260335284A1, “STABLE MITOMYCIN CONCENTRATES” (STEPS BIOSCIENCES, INC., priority 2022, published 2026).

Conditions: EP 0415430A1

SMILES: CO[C@@]12[C@H](COC(N)=O)C3=C(C(=O)C(C)=C(N)C3=O)N1C[C@@H]1N[C@@H]12 [MMC, Mitomycin C]
- Stability in water and in PEG (in water and also in PEG): very unstable
- Stability in PG with finite percentage of water (5%) (solutions at 5 mg/mL): most stable
